According to publication PMC5607274, “An iterative compound screening contest method for identifying target protein inhibitors using the tyrosine-protein kinase Yes” (Scientific Reports, 2017):

Target: T1, human recombinant Yes [a.a. 2–543 (end)] (Homo sapiens, UniProt P07947)
T1 construct: human recombinant Yes [a.a; 2–543 (end)]; purchased BPS Bioscience 40488
Experiment: ADP-Glo kinase assay, inhibition rates of Yes phosphorylation activity (first and second screening)
Assay type: biochemical
Conditions: 10 μmol L−1 compound; for First screening IR (inhibition rate): mean of n = 4 wells
In short: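 Hits from a first pass were rescreened after re-dissolution from fresh powder. The first pass reported the mean inhibition rate of quadruplicate wells per compound. Activity was that of recombinant human Yes [a.a. 2–543] kinase, read out with the ADP-Glo ADP-detection method.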

T1 sequence (P07947 2-543): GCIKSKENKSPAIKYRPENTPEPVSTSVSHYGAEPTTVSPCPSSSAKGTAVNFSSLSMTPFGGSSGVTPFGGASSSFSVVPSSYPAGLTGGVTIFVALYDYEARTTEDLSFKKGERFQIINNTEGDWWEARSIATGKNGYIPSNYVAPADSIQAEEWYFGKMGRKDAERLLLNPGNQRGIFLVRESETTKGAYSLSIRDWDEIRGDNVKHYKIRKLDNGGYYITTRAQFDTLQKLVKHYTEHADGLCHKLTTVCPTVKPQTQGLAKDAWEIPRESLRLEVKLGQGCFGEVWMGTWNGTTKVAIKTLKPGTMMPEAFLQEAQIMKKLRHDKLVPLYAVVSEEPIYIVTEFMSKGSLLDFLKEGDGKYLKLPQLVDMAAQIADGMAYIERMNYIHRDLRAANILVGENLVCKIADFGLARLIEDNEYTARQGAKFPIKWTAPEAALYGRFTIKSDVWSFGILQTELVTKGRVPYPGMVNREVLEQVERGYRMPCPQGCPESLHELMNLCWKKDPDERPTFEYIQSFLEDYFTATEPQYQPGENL

| First screening IR (inhibition rate) | Second screening IR (inhibition rate) (second screening, dissolved from fresh powder, n = 4) | Structure (SMILES) |
| --- | --- | --- |
| 9% |  | COCCNC(=O)CN1CCN(c2nc(-c3cccnc3)nc3scc(-c4ccccc4)c23)CC1 [Compound Z128012326] |
| -8% |  | CON(C)C(=O)c1cc(-c2ccccc2)nc2c1cnn2Cc1ccncc1 [Compound Z109300154] |
| 8% |  | CCN(CC)S(=O)(=O)c1ccc(NC(=O)CNC(=O)C23CC4CC(CC(C4)C2)C3)cc1 [Compound Z31827545] |
| -7% |  | Cc1ccccc1Nc1nc(N)nc(CSc2nc3ccccc3c(=O)n2CCCN2CCOCC2)n1 [Compound Z19837406] |
| 0% |  | COC(=O)c1cnc(N2CCCCC2)cc1N1CCCCC1 [Compound Z1465442209] |
| 6% |  | CC(C)(C)c1ccc(NC(=O)/C=C/c2cncc(O)c2)cc1 [Compound Z1574815119] |
| 18% |  | COc1cccc2cc(C(=O)N3CCN(S(=O)(=O)c4ccccc4C(F)(F)F)CC3)c(=O)oc12 [Compound Z29531247] |
| 8% |  | COC(=O)c1ccc(CNC(=O)Cn2c(=O)c3c(ncn3CCC(C)C)n(Cc3ccccc3)c2=O)cc1 [Compound Z24149625] |
| -18% |  | CS(=O)(=O)C1CSCCN1S(=O)(=O)c1ccc(Br)cc1Cl (stereo not shown) [Compound Z1274438175] |
| -5% |  | Cc1ccc(-n2ncc(C(=O)Nc3ccccc3F)c2C2CC2)cc1Cl [Compound Z363094390] |
| 8% |  | O=C(Nc1nc2ccccc2[nH]1)c1ccc(N2CCCC2=O)cc1 [Compound Z27664887] |
| 41% |  | COc1cc(/C=C/C(=O)N2CCCC2c2c(C)nn(C)c2C)cc(Br)c1O (stereo not shown) [Compound Z1634598040] |
| 0% |  | C=CCN(CC(=O)Nc1ccc(S(=O)(=O)N2CCOCC2)cc1)S(=O)(=O)c1ccccc1C(F)(F)F [Compound Z24398732] |
| -3% |  | Cc1nnc(COC(=O)c2cc(-c3ccccc3)nc3c2cnn3C(C)C)o1 [Compound Z51550903] |
| 45% | -12% | c1ccc2nc(Nc3cn[nH]c3)cnc2c1 [Compound Z729018028] |
| 18% |  | CC1CC(C)(C)CC2(C1)NC(=O)N(CN1CCN(c3ccc(C(F)(F)F)cn3)CC1)C2=O (stereo not shown) [Compound Z44255985] |
| 8% |  | O=C(OCc1nc(-c2cccs2)no1)c1c(F)cccc1F [Compound Z51088101] |
| 5% |  | CN(C)c1nc(N)nc(COc2ccc3cc(Br)ccc3c2)n1 [Compound Z168931562] |
| -1% |  | Cc1ccc(S(=O)(=O)CCCS(=O)(=O)N(C)C)c(C)c1 [Compound Z1134191614] |
| 15% |  | Cc1cc(-c2cc(C(=O)Nc3ccc(N4CCN(C)CC4)nc3)c3cnn(C(C)C)c3n2)c(C)o1 [Compound Z228220646] |
| 14% |  | CCN(CC)CCn1c(NC(=O)c2ccc(OCC(F)(F)F)nc2)nc2ccccc21 [Compound Z228032620] |
| 27% |  | CCc1cccc(CC)c1NC(=O)COC(=O)CC1c2ccccc2CCN1S(=O)(=O)c1ccc(F)cc1 (stereo not shown) [Compound Z56803956] |
| 7% |  | CC(C)NC(=O)Nc1ccc(C(=O)N(CCC#N)Cc2ccco2)cc1 [Compound Z979061162] |
| -17% |  | Cc1ncc(C(=O)NC(C)c2cccc(NC(=O)c3ccccc3)c2)[nH]1 (stereo not shown) [Compound Z1171689075] |
| 4% |  | COc1ccc(-c2n[nH]c(CNC(=O)C3=NN(C)C(=O)CC3)n2)cc1 [Compound Z1119644111] |
| 3% |  | Cc1nn(-c2ccccc2)c(Cl)c1CN1CCN(S(=O)(=O)c2ccccc2C(F)(F)F)CC1 [Compound Z94609806] |
| -1% |  | COc1cccc(OCCN2CCN(c3cc(C(C)(C)C)nc4c(-c5ccc(F)cc5)c(C)nn34)CC2)c1 [Compound Z439257332] |
